US20080300180A1, “Growth Hormone Secretagogue Receptor 1A Ligands” (Gastrotech Pharma A/S, priority 2004, published 2008)
“Also recorded” adds a separate entry of the source. Square brackets hold non-standard residues; d marks the D form. Ends that are not written are not given here. * marks the point of attachment. Octanoyl = CCCCCCCC(=O)*; GABA = NCCCC(=O)O

Experiment: Preclinical study evaluating the long-term efficacy of subcutaneous ghrelin, GTP-5 and GTP-6 in rats (weight gain, food intake, fat pads)
Type: in vivo, rat
Settings: for Total weight increase in the animals, Mean ± S.D.: Sprague-Dawley rats, n=8, s.c. twice daily; for Body weight gain compared with saline group (in words) / Cumulative food intake compared with control group (in words) / Epididymal fat depots (fat pad weight, in words) / Subcutaneous fat depots (fat pad weight, in words): rats, s.c. twice daily
Protocol: 48 (Sprauge-Dawley (SD) IGS BR) rats were used in the study. The animals were caged individually and fed a commercial diet, R34, from Lactamin AB, Sweden. They were given free access to water. All animals were allowed an acclimatisation period of a minimum of 7 days prior to the commencement of the experiment. The animals were separated in six groups (n=8) and treated twice daily with subcutaneous injections as follows: • Group 1. Control (NaCl). • Group 2. Positive control Ghrelin 200 μg/kg body weight/injection. • Group 3. GTP-5 50 μg/kg body weight/injection. • Group 4. GTP-5 200 μg/kg body weight/injection. • Group 5. GTP-6 50 μg/kg body weight/injection. • Group 6. GTP-6 200 μg/kg body weight/injection.
The weight of the animals, and their food and water were recorded daily. The animals were checked twice daily for change in food intake, activity and fur quality as signs of a change in general health status.
Pre-dose, day 7 and 14 the animals were anaesthetized with Isofluran and blood was collected through the orbital plexus. The blood was analysed for clinical chemistry (ASAT, ALAT, bilirubin, albumin, creatinine, LD, GGT, potassium, sodium, glucose, IgF-1, insulin and leptin) and haematology (white blood cells, red blood cells, haemoglobin, platelets and haematokrit). After blood sampling the animals were killed and epididymal, subcutaneous and retroperitoneal fat pads were dissected and weighed.

[1] = 200 μg/kg body weight/injection
[2] = 50 μg/kg body weight/injection (low dose)
[3] = 200 μg/kg body weight/injection (high dose)
[4] = 200 μg/kg body weight/injection (high dose), listed as ghrelin

Substance | Total weight increase in the animals, Mean ± S.D. (50 μg/kg body weight/injection) [g] | Total weight increase in the animals, Mean ± S.D. [1] [g] | Body weight gain compared with saline group (in words) [2] | Cumulative food intake compared with control group (in words) [2] | Body weight gain compared with saline group (in words) [3] | Cumulative food intake compared with control group (in words) [3] | Epididymal fat depots (fat pad weight, in words) [3] | Subcutaneous fat depots (fat pad weight, in words) [3] | Body weight gain compared with saline group (in words) [4] | Cumulative food intake compared with control group (in words) [4] | Subcutaneous fat depots (fat pad weight, in words) [2]
GABAS(CO-C7 H15)FLSPEHQRVQQRKESKKPPAKLQPR ([GABA]S(Octanoyl)FLSPEHQRVQQRKESKKPPAKLQPR) [GTP-5, 27 amino acids long, octanoyl on the serine-3 sidechain (GABA = 4-aminobutyric acid)] | 75.4 ± 14.3 | 78.2 ± 16.3 | higher weight gains than saline; also recorded: associated with increases | associated with increases | higher weight gains than saline; also recorded: associated with increases | tended to eat more than the control group; also recorded: associated with increases | significant increase | significant increase; also recorded: induced an increase |  |  | 
Ghrelin: Positive control; 28 amino acid peptide hormone acylated on serine 3, endogenous GHS-R1a ligand (GSS(Octanoyl)FLSPEHQRVQQRKESKKPPAKLQPR; UniProt Q9UBU3 24-51, looked up) [reference compound] |  | 92.1 ± 9.0 |  |  | associated with increases | associated with increases | significant increase | significant increase; also recorded: induced an increase | gained significantly more weight than the saline group | higher cumulative food intake | 
bASS(CO-C7 H15)FLSPEHQRVQQRKESKKPPAKLQPR (XSSFLSPEHQRVQQRKESKKPPAKLQPR; N-terminal beta-alanine; octanoyl on Ser3) [GTP-6, 28 amino acids long, octanoyl group on serine-3 sidechain (bA = beta-alanine)] | 79.3 ± 10.0 | 77.8 ± 10.2 | higher weight gains than saline; also recorded: associated with increases | tended to eat more than the control group; also recorded: associated with increases | higher weight gains than saline; also recorded: associated with increases | tended to eat more than the control group; also recorded: associated with increases |  | significant increase; also recorded: induced an increase |  |  | significant increase; also recorded: induced an increase
